In patent US11702419B2, “Heterocyclic compound and use thereof” (Takeda Pharmaceutical Company Limited, priority 2018, dated 2023) one finds inhibition data, which are given here for 15 compounds.

The target in this test is T1, NMDA receptor composed of four subunits consisting of two sets of heterodimers of NR1 and NR2B (human GRIN1 and GRIN2B-expressing HEK293 cells) (Homo sapiens, UniProt Q13224).
T1 construct: host or cells: HEK293 (tetracycline-inducible expression)
T1 sequence (Q13224 27-1484, other chains not shown): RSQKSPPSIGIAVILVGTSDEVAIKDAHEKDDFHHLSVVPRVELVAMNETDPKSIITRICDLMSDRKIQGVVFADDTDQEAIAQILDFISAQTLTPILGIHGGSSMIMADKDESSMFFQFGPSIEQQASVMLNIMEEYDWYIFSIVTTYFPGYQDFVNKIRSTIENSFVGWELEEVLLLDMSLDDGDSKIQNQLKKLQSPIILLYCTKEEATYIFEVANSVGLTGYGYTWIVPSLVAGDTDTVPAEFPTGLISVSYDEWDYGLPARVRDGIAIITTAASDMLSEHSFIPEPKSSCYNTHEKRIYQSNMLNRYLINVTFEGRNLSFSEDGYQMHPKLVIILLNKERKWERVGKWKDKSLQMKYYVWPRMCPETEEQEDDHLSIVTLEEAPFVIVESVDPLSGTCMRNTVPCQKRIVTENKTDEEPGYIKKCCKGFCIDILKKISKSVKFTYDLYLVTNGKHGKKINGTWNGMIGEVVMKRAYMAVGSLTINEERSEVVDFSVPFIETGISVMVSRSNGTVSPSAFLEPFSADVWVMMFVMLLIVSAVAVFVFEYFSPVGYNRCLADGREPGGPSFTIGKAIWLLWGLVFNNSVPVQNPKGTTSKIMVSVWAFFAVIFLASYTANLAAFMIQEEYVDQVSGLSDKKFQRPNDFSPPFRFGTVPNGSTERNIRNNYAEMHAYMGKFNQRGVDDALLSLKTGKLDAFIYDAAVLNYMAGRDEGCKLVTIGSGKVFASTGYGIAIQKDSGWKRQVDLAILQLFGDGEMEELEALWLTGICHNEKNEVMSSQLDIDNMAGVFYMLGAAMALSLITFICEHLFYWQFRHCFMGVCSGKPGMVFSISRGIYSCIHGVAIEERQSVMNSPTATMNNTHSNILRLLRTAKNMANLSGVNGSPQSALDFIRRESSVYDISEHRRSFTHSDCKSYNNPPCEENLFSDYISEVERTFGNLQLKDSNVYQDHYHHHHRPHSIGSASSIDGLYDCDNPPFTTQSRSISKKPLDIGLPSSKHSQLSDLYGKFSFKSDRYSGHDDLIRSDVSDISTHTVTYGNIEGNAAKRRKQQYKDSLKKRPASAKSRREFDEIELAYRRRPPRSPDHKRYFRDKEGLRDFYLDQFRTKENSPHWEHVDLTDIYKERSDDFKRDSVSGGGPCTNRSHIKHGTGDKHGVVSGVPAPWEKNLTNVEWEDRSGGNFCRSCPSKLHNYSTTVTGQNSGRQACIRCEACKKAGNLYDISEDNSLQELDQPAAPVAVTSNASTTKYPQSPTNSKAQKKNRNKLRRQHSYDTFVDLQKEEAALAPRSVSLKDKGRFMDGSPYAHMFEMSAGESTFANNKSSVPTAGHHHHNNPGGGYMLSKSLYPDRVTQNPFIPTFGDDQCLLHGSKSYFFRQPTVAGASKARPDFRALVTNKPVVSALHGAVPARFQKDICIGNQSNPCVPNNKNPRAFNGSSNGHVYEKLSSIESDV
The experiment in a line: NR2B Ca2+ influx assay. The test is classed as cell-based. Conditions: 10 μM compound, glutamic acid/glycine-induced Ca2+ influx, FLIPR, read-out: inhibitory rate (10 μM compound concentration). As to the method:
In order to confirm an “antagonistic action on an NMDA receptor containing the NR2B subunit” which the compound of the present invention has, inhibitory effect on the NMDA receptor activation was evaluated using “NMDA receptor composed of four subunits consisting of two sets of heterodimers of NR1 and NR2B”-expressing human fetal renal cells, specifically human glutamate ionotropic receptor NMDA type subunit 1 (GRIN1) and human glutamate ionotropic receptor NMDA type subunit 2B (GRIN2B)-expressing HEK293 cells.
As an index of the NMDA receptor activation, intracellular calcium ion (Ca^2+) influx caused by bonding of glycine and glutamate to NR1 and NR2B respectively was used. HEK293 cells were purchased from ChanTest. The cells were cultured in a DMEM/F-12 (COSMO BIO, 10-092-CM) medium containing 10% FBS (fetal bovine serum, AusGene), 100 units/mL penicillin, 100 μg/mL streptomycin, 500 μg/mL neomycin, 100 μg/mL Zeocin and 5 μg/mL Blasticidin at 37° C., 5% CO2. The cells were detached from flask with trypsin the day before the assay, suspended in a seeding medium (DMEM (Invitrogen, 31053) containing 10% FBS, 100 units/mL penicillin and 100 μg/mL streptomycin) at 8×10^5 cells/mL, seeded by 25 μL per well in a 384-well plate (Falcon, 356663) at 20000 cells/well, and cultured overnight in an incubator. On the day of the assay, tetracycline (Wako Pure Chemical Industries, 209-16561) was diluted with the seeding medium at 2 μg/mL, and the dilution was added at 25 μL/well to the plate seeded with the cells, and the cells were cultured for 2 hr in an incubator. Thereafter, the medium was removed, and the cells were washed with 50 μL/well of assay buffer (137 mM NaCl, 4 mM KCl, 1.8 mM CaCl2, 10 mM HEPES (pH 7.2), 10 mM Glucose, and 0.1% BSA). Then, a loading buffer (assay buffer containing 2.5 μM Fluo-4AM, 2 mM Amaranth and 1 mM Tartrazine) was added thereto at 25 μL/well, and loading was performed in the incubator for 30 min, and then at room temperature for 15 min. The test compound was diluted with the above-mentioned assay buffer so as to adjust the concentration to 30 μM, the obtained solution (25 μL) was added thereto (the final concentration 10 μM), and the cells were stood for 15 min at room temperature. Using FLIPR (Molecular Devices), 25 μL of an assay buffer containing 30 μM glutamic acid and 30 μM glycine was added thereto, and the fluorescence signal was measured every 3 seconds for 5 min. The relative activity value (inhibitory rate) was calculated when the cumulative total value of the fluorescence value of a well added with a buffer free of glutamic acid and glycine, relative to the cumulative total value of the fluorescence value of each well are regarded as 100% inhibition. The obtained value was evaluated as an inhibitory activity.
Take `Cc1ccc2c(CNC(=O)c3ccc(OC(F)(F)F)c(F)c3)cnn2n1` [Example 11, 3-fluoro-N-((6-methylpyrazolo[1,5-b]pyridazin-3-yl)methyl)-4-(trifluoromethoxy)benzamide]: the inhibition at 10 µM is 98%.

For the compound `Cc1nn2ncc(CNC(=O)c3cnc(OC(F)F)c(Cl)c3)c2n1C` [Example 72, 5-chloro-6-(difluoromethoxy)-N-[(1,2-dimethyl-1H-pyrazolo[1,5-b][1,2,4]triazol-7-yl)methyl]pyridine-3-carboxamide], the inhibition at 10 µM was found to be 95%.

For the compound `COc1c(F)cc(C(=O)NCc2cnn3ccn(C)c23)cc1F` [Example 62, 3,5-difluoro-4-methoxy-N-((1-methyl-1H-imidazo[1,2-b]pyrazol-7-yl)methyl)benzamide], the inhibition at 10 µM amounted to 95%.

As to `O=C(NCc1c(C2CC2)nn2ncccc12)c1cnc(OC(F)F)c(F)c1` [Example 28, N-((2-cyclopropylpyrazolo[1,5-b]pyridazin-3-yl)methyl)-6-(difluoromethoxy)-5-fluoronicotinamide], the inhibition at 10 µM was found to be 85%.

Consider `Cc1ccnn2ncc(CNC(=O)c3ccc(OC(F)(F)F)c(F)c3)c12` [Example 20, 3-fluoro-N-((4-methylpyrazolo[1,5-b]pyridazin-3-yl)methyl)-4-(trifluoromethoxy)benzamide], for which the inhibition at 10 µM is 97%.

For `Cc1nn2cnccc2c1CNC(=O)c1cnc(OC(F)F)c(F)c1` [Example 55, 6-(difluoromethoxy)-5-fluoro-N-((2-methylpyrazolo[1,5-c]pyrimidin-3-yl)methyl)nicotinamide], the inhibition at 10 µM came to 84%.

`O=C(NCc1nnn2ccccc12)c1ccc(C(F)(F)F)c(F)c1` [Example 68, 3-fluoro-N-([1,2,3]triazolo[1,5-a]pyridin-3-ylmethyl)-4-(trifluoromethyl)benzamide]: the inhibition at 10 µM was found to be 83%.

Turning to `O=C(NCc1cnn2ccncc12)c1cnc(OC(F)F)c(F)c1` [Example 45, 6-(difluoromethoxy)-5-fluoro-N-(pyrazolo[1,5-a]pyrazin-3-ylmethyl)nicotinamide], the inhibition at 10 µM amounted to 92%.

Turning to `Cc1ccnn2nnc(CNC(=O)c3ccc(OC(F)(F)F)c(F)c3)c12` [Example 52, 3-fluoro-N-((4-methyl[1,2,3]triazolo[1,5-b]pyridazin-3-yl)methyl)-4-(trifluoromethoxy)benzamide], the inhibition at 10 µM came out at 95%.

As to `O=C(NCc1nnn2ccccc12)c1ccc(OC(F)F)c(F)c1` [Example 35, 4-(difluoromethoxy)-3-fluoro-N-([1,2,3]triazolo[1,5-a]pyridin-3-ylmethyl)benzamide], the inhibition at 10 µM came to 94%.

For the compound `O=C(NCc1cnn2ncccc12)c1ccc(OC(F)F)c(F)c1` [Example 15, 4-(difluoromethoxy)-3-fluoro-N-(pyrazolo[1,5-b]pyridazin-3-ylmethyl)benzamide], the inhibition at 10 µM was 98%.

Take `O=C(NCc1c(C2CC2)nn2ncccc12)c1ccc(OC(F)F)c(F)c1` [Example 29, N-((2-cyclopropylpyrazolo[1,5-b]pyridazin-3-yl)methyl)-4-(difluoromethoxy)-3-fluorobenzamide]: the inhibition at 10 µM was 89%.

In the case of `Cc1cccn2nnc(CNC(=O)c3ccc(OC(F)F)c(Cl)c3)c12` [Example 3, 3-chloro-4-(difluoromethoxy)-N-((4-methyl[1,2,3]triazolo[1,5-a]pyridin-3-yl)methyl)benzamide], the inhibition at 10 µM stood at 76%.

Turning to `O=C(NCc1cnn2ccncc12)c1ccc(OC(F)F)c(F)c1` [Example 44, 4-(difluoromethoxy)-3-fluoro-N-(pyrazolo[1,5-a]pyrazin-3-ylmethyl)benzamide], the inhibition at 10 µM amounted to 94%.

For `O=C(NCc1cnn2ccn(CC(F)F)c12)c1cnc(OC(F)F)c(Cl)c1` [Example 80, 5-chloro-N-[{1-(2,2-difluoroethyl)-1H-imidazo[1,2-b]pyrazol-7-yl]methyl}-6-(difluoromethoxy)pyridine-3-carboxamide], the inhibition at 10 µM stood at 91%.
